Assays:
human recombinant FGFR4 = target: T1, human recombinant FGFR4 (Homo sapiens, UniProt P22455); assay: FGFR4 enzyme assay; assay type: biochemical; conditions: test compound 10 nM; read-out: FGFR4 Kinase Activity Inhibitory Rate
T1 construct: purchased CARNA BIOSCIENCES; Inc. 08CBS-0716C
Procedure: The outline of the measurement method is shown below.
Into a well of a 384-well plate,
(1) 4 μL of a compound solution was added,
(2) 2 μL of an FGFR4 enzyme (3 ng/μL) diluted with a reaction buffer was added,
(4) the mixture was allowed to undergo a reaction at room temperature for 30 minutes (concentration of the test compound species during assay of 10 nM).
(5) 15 μL/well of a 20 mM EDTA solution was added thereto to stop the reaction, and then in a LabChip EZ Reader (Perkin Elmer), the amount of a phosphorylated substrate peptide produced by the kinase reaction of FGFR4 was measured.

HuH-7 cell = assay: Growth assay of FGF19 gene amplification-positive liver cancer cell (HuH-7); assay type: cell-based; conditions: Homo sapiens, Huh-7, 120 h; test compound 37 nM, 5 days; read-out: HuH-7 Cell Growth Inhibitory Rate
Procedure: After 5 days from the addition of the test compound solution, the number of HuH-7 cells were measured with ARVO×3 (Perkin Elmer) using a CellTiter-Glo Luminescent Cell Viability Assay (Promega). […] That is, the inhibitory rate was calculated by <the growth inhibitory rate (%)>=<1−(the measured value of the well to which the test compound was added>−<the measured value of the well to which the cells were not added (only medium present)>)/{<the measured value of the well to which the test compound was not added (only DMSO was added)>−<the measured value of the well to which the cells were not added (only medium present)}]×100.

[1] = system: FGF19 gene amplification-positive liver cancer cell (HuH-7); assay: Antitumor test using mouse model subcutaneously transplanted with HuH-7 cells; assay type: in vivo, nude mice; conditions: 1 mg/kg/day oral once daily
Procedure: HuH-7 cells at 3×10^6 cells/0.1 mL (solution suspended in PBS and Matrigel at 1:1) was subcutaneously transplanted to nude mice (CanN.Cg-Foxn1 nu/CrlCrlj(nu/nu): Charles River Laboratories Japan, Inc., male, 4-5 week old). After about 3 weeks after the transplantation, the mice were grouped according to the tumor volumes and body weights. […] The test compound was made into a suspension using a 0.5% aqueous methyl cellulose solution and orally administered once a day daily. […] For the tumor volume, a short diameter and long diameter were measured using a calipers, and the tumor volume was calculated by (tumor volume mm^3)=(short diameter mm×short diameter mm×long diameter mm)/2. […] The tumor growth inhibitory rate of test compound was calculated by <the tumor growth inhibitory rate (%)>=<1−(increase in the tumor volume of the test compound-administered group/increase in the tumor volumes of the control group)>×100. The increase in the tumor volume was calculated by (increase in the tumor volume)=(the tumor volume on the final day of each group)−(the tumor volume on the 0th day of each group).

[2] = system: surgically unresectable liver cancer; conditions: extension from 7.9 months; N Engl J Med. 2008; cited from earlier work

T1 sequence (P22455 22-802): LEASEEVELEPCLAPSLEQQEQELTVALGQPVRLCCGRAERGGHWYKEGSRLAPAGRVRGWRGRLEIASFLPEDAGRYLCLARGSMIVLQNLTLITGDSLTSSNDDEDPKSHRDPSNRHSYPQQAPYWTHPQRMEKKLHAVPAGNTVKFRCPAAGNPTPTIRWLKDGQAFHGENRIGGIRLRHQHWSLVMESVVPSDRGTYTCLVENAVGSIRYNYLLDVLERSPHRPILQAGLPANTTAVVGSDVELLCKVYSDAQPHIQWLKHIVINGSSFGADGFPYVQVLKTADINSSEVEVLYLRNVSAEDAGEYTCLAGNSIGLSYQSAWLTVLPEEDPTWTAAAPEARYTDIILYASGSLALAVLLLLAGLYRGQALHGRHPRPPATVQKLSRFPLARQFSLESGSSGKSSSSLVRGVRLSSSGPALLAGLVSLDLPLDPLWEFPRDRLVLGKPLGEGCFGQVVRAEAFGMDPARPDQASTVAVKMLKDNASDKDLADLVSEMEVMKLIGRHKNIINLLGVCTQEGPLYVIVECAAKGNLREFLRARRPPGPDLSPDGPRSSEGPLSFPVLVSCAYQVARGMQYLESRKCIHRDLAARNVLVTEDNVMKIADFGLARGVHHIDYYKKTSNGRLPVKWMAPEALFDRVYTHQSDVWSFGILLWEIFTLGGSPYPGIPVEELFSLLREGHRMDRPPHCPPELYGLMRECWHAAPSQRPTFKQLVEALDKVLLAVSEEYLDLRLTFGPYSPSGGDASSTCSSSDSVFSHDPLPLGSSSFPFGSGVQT

SMILES | inhibition at 0.01 µM (human recombinant FGFR4) | inhibition at 0.037 µM (HuH-7 cell) | Tumor growth inhibitory rate ([1]; final day 9th day) | Tumor growth inhibitory rate ([1]; final day 10th day) | survival [2]
COc1cc(OC)c(F)c(COc2cnc(Nc3cc(CN4CCN(C)CC4)n(C)n3)nc2)c1F [Compound E, 5-[(2,6-difluoro-3,5-dimethoxybenzyl)oxy]-N-{1-methyl-5-[(4-methylpiperazin-1-yl)methyl]-1H-pyrazol-3-yl}pyrimidin-2-amine] | 31% | 11% | 44% | – | –
COc1cc(OC)c(F)c(COc2cnc(Nc3ccc(N4CCN(C)CC4)cc3)nc2)c1F [Compound D, 5-[(2,6-difluoro-3,5-dimethoxybenzyl)oxy]-N-[4-(4-methylpiperazin-1-yl)phenyl]pyrimidin-2-amine] | 82% | 65% | – | 67% | –
COc1cc(Nc2ncc(OCc3c(F)c(OC)cc(OC)c3F)cn2)ccc1N1CCC(N2CCN(C)CC2)CC1 [Compound A, 5-[(2,6-difluoro-3,5-dimethoxybenzyl)oxy]-N-{3-methoxy-4-[4-(4-methylpiperazin-1-yl)piperidin-1-yl]phenyl}pyrimidin-2-amine] | 78% | 53% | – | 80% | –
CNC(=O)c1cc(Oc2ccc(NC(=O)Nc3ccc(Cl)c(C(F)(F)F)c3)cc2)ccn1 [sorafenib] | – | – | – | – | 10.7 months
